The results in this text go back to patent US20050004029A1, “Methods and compositions for treating vascular leak using hepatocyte growth factor” (priority 2001, published 2005).

One experiment has as its system PKCα. The experiment can be described thus: PKCα activation (phospho-PKC immunoreactivity, membrane translocation). It counts as cell-based, human. The settings on record: after HGF. As for the experimental part:
(§1) Endothelial cell monolayers grown to confluence in 12-well plates and challenged with HGF were lysed with 100 μl of 2×SDS sample buffer, and cell lysates were transferred into microcentrifuge tubes and boiled for 5 min. After a brief spin, proteins from 10 μl cell lysates were separated on 12% SDS-PAGE and transferred to nitrocellulose (Schleicher & Schuell, Keene, N.H.) (30V, 18 h). After blocking with PBST (PBS with 0.1% Tween 20) containing 5% non-fat milk for 1 hr, nitrocellulose blots were reacted with primary antibodies diluted in PBST containing 5% BSA for 1 hr, washed with PBST (3×10 min), incubated with peroxidase-conjugated secondary antibodies (goat anti-rabbit IgG, 1:10,000 dilution, Sigma; or goat anti-mouse IgG, 1:10,000 dilution, Bio-Rad Labs, Richmond, Calif.) diluted in PBST with 5% non-fat milk for 1 hr and again washed with PBST (3×10 min). Finally, immunoreactive proteins were detected using ECL. The relative intensities of the protein bands were quantified by scanning densitometry.
Endothelial cells were fractionated into cytosolic, membrane, and nuclear/cytoskeleton fractions as described in Borbiev, T. et al. (2001) Am. J. Physiol. Lung Cell. Mol. Physiol. 280:L983-L990. […]

In another experiment the test system is p38 MAPK. Kind of experiment: p38 MAPK activation by phospho-specific immunoblotting. The settings on record: HGF 20 ng/ml. It counts as cell-based, human. The procedure:
as §1
The MAP family of kinases (ERK1/2 and p38) are actively involved in agonist-induced endothelial cell actin reorganization and barrier regulation (Verin, A. D. et al. (2000) Am. J. Physiol: Lung Cell Molec. Phys. 279:L360-L370, 2000; Garcia, J. G. N. et al. (2001) J. Clin. Invest. 108:689-711) and have been noted to participate in HGF-mediated cell activation (Liang, C. C. and Chen, H. C. (2001) J. Biol. Chem. 276:21146-21152). These reports were confirmed in human endothelial cell monolayers incubated with HGF (20 ng/ml, for 1, 2, 5, 10, 15, 20, 30, 60, or 120 min) where activation of p42/44 ERK and p38 MAPK by HGF was detected by immunoblotting with antibodies that only recognize the phosphorylated (activated) forms of ERK or p38 MAPK. The activation of ERKs was evident at 5 min, maximal after 10-15 min with a gradual decline thereafter, but remaining sustained above basal levels for more than 2 hrs. […] The onset of HGF-mediated activation of p38 MAPK was similar to ERK, with plateau at 10-15 min. […]

Consider “HGF: heparin-binding glycoprotein, multifunctional cytokine, ligand of c-Met; purchased from R&D Systems”, for which, in the experiment with PKCα, the “time at which PKCα activation is detectable (phospho-PKC immunoreactivity)” value is given as 15 min and the “time of PKCα translocation to the membrane fraction” value came out at 5 min. In the experiment on p38 MAPK, the “time at which p38 MAPK activation begins to decline” value is on record as at most 20 min, the “time of plateau of p38 MAPK activation” value was in the range of 10 to 15 min and the “time of return of p38 MAPK activation to basal value” was at most 1 h.
